Assay results from publication PMC9890698 (BMC Biology, 2023).
“And” between values parts separate entries of the source, which are not always exact repeats. Equal values may be shown once.

Experiments:
Human P2Y1-R = molecular target: T1, Human P2Y1-R (Homo sapiens, UniProt P47900); test: Gαq protein activation BRET2 assay (Gαq-RLuc8/GFP2-Gγ2/Gβ1) in HEK293T cells expressing P2Y1-R; assay type: cell-based; parameters: ADP-modulated BRET / MRS2179-modulated BRET: unit not given here; settings: for G protein signaling, Ligand-modulated BRET (% of maximum MRS2179 mean value): Figure 4a, individual replicates
T1 construct: expressed in transfected cells; host or cells: HEK293T/17
Excerpt: As previously described, using a BRET^2 (bioluminescence resonance energy transfer)-based assay, we directly monitored the basal Gαq protein activation by measuring the interaction between Gαq and Gγ2 subunits of the Gαqβ1γ2 heterotrimer complex. Indeed, this assay is based on the non-radiative transfer between the Renilla reniformis luciferase (RLuc8) energy donor fused to the Gαq protein subunit and the fluorescent GFP2 energy acceptor fused to Gγ2 protein subunit (Fig. 1a). […] By contrast, ligand-independent constitutive receptor activation or agonist-induced receptor activation will promote Gαq/Gγ2 subunit dissociation, thereby leading to a decrease of the basal BRET signal (Fig. 1a). […] To preclude any P2Y1-R activation by a passive release of ADP by HEK293T cells, we performed similar experiments in the presence of high concentration of apyrase (0.2U/mL) to degrade any trace of ADP in the medium (Additional File 2: Fig. S2a). Under these conditions, P2Y1-R expression still induces a marked and significant decrease of the basal BRET signal compared to control cells (pcDNA3.1), thereby supporting a P2Y1-R-dependent constitutive activation of Gαq protein. […] Of note, because P2Y1-R and AT1-R were respectively Myc- and HA-tagged and were thus detected using different primary antibodies, their expression at the cell surface cannot be compared between each other’s.
Human P2Y1-R (NCBI Reference Sequence: NM_002563.2) and P2Y12-R (NCBI Reference Sequence: NM_022788.3) were fused to double Myc epitope and rat AT1-R (NCBI Reference Sequence: NM_030985.4) to HA tag in N-terminus extracellular region. Alternatively, receptors were also fused to Venus tag in C-terminus intracellular region. Plasmids encoding Gαq-RLuc8, GFP2-Gγ2 and untagged Gβ1 were previously described. ADP was purchased from Sigma-Aldrich/Merck (Darmstadt, Germany). […] The Gq inhibitor (FR900359) was kindly supplied by Evi Kostenis (University of Bonn. Germany).
G protein activation and β-arrestin 2 recruitment were performed as previously described. Briefly, vectors encoding receptors, Gαq-RLuc8, GFP2-Gγ2, Gβ1, or β-arrestin 2 were transiently cotransfected into HEK293T/17 cells as indicated in the figure legends. Forty-eight hours after transfection, cells were washed and resuspended in PBS containing 0.1% (w/v) glucose at room temperature and then distributed (80 μg proteins/well) in a 96-well microplate (PerkinElmer). For G protein activation experiments (BRET^2), cells were incubated in the absence (basal BRET signal) or in the presence of ligand for 1 minute. BRET signal between RLuc8 and GFP2 was measured after addition of the luciferase substrate coelenterazine 400a (5 μM). For β-arrestin 2 recruitment (BRET^1), cells were stimulated with ligands for 5 or 15 min. BRET signal was recorded after incubation with coelenterazine h (5 μM) for 8 min. For kinetics studies, BRET signal between RLuc and Venus was recorded at 20-s intervals at basal state for the 2 first minutes and then for 5 min after ligand injection. For saturation curves (BRET^1), the expression level of Venus- or RLuc-tagged protein was determined by direct measurement of total fluorescence and luminescence respectively. Total fluorescence was first measured with an excitation filter at 485 nm and an emission filter at 520 nm. Then, the same sample was incubated for 8 minutes with 5 μM coelenterazine h and the total luminescence was measured. BRET^2 and BRET^1 readings were collected using a modified Infinite F500 (Tecan Group Ltd). The BRET^2 signal was calculated by the ratio of emission of GFP2 (510–540 nm) to RLuc8 (370–450 nm) and the BRET^1 signal by the ratio of emission of Venus (520–570 nm) to RLuc (370–480 nm). […]

[1] = system: washed human platelets (P2Y1-R/Gαq signaling); test: IP1 accumulation assay (HTRF) in washed human platelets; assay type: cell-based; settings: for IP1 concentration (% of basal mean at 30 minutes): Fig. S4a, MRS2179 10 µM, individual replicates
Method: As performed in HEK293T cells, we thus quantified intracellular IP1 levels to monitor Gαq protein-dependent signaling pathways.
Human platelets were prepared from adult healthy volunteers free of antiplatelet or anti-inflammatory medication since at least ten days. […] After two steps of centrifugation and suspension in Tyrode’s buffer (140 mM NaCl, 5 mM KCl, 5 mM KH2PO4, 1 mM MgSO4, 10 mM HEPES, 5 mM glucose and 0.35% (w/v) BSA, pH 6,7), washed platelets were suspended in the same buffer adjusted to pH 7.4 and containing 1 mM CaCl2. The final platelet suspension was adjusted to 3.10^8 platelets/mL and rested for 45 min in the presence of 0.02 U/mL apyrase and 10 μM indomethacin at 37 °C prior experiments. PGI2 (0.5 μM) was added before centrifugation steps to avoid platelet activation.
Quantification of intracellular IP1 was performed using the HTRF (Homogeneous Time Resolved Fluorescence) IP1 competitive immunoassay (IP-One Tb kit. Cisbio. France) according to the manufacturer’s instructions. Briefly, 20,000 HEK293T/17 cells or 3.10^6 platelets were distributed in a 384-well white microplate (Greiner) and incubated with the indicated molecules for 30 min or 2 h at 37 °C in the presence of 50 mM of LiCl to prevent IP1 degradation. After addition of d2-labeled IP1 (acceptor) and anti-IP1-Cryptate (donor) for 1 h, the specific FRET signals were calculated by the fluorescence ratio of the acceptor and donor emission signal (665/620 nm) collected using a modified Infinite F500 (Tecan Group Ltd). Conversion of the HTRF ratio of each sample into IP1 concentrations was performed on the basis of a standard curve to determine the linear dynamic range of the assay.

[2] = G protein signaling, Fig. 4a, 1 min

T1 sequence (P47900 whole entry): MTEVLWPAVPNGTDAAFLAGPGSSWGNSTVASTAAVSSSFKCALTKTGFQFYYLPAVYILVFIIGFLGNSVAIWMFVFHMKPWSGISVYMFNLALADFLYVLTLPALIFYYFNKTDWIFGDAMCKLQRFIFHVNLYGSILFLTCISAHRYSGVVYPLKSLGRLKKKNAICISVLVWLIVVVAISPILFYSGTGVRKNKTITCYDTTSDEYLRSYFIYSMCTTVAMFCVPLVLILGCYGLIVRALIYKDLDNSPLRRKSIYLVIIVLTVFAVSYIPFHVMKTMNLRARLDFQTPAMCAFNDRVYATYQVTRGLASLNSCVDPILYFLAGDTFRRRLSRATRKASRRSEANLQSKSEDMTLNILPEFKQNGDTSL

With `CNc1ncnc2c1ncn2[C@H]1C[C@H](OP(=O)(O)O)[C@@H](COP(=O)(O)O)O1` [MRS2179] the “Maximal efficacy (Emax ± s.e.m.), MRS2179-modulated BRET” value (Human P2Y1-R; Fig. 1f, 1 min stimulation, difference in BRET signal with and without ligand) was 0.1224 ± 0.01335, the EC50 (Human P2Y1-R; Fig. 1f, MRS2179 inverse agonism on Gαq protein activity, 1 min) was 11.1 µM and the “pEC50 ± s.e.m.” value (Human P2Y1-R; Fig. 1f, inverse agonism on Gαq protein activity, 1 min) was 4.955 ± 0.1405. For the same molecule, the “G protein signaling, Ligand-modulated BRET (% of maximum MRS2179 mean value)” value (Human P2Y1-R; [Ligand] 1.00E-04 M) was 119.465 % of maximum MRS2179 mean value and 98.3727 % of maximum MRS2179 mean value and 97.2091 % of maximum MRS2179 mean value and 96.9774 % of maximum MRS2179 mean value and 99.1946 % of maximum MRS2179 mean value and 88.7807 % of maximum MRS2179 mean value, the “G protein signaling, Ligand-modulated BRET (% of maximum MRS2179 mean value)” value (Human P2Y1-R; [Ligand] 1.00E-05 M) was 56.3081 % of maximum MRS2179 mean value and 33.7445 % of maximum MRS2179 mean value and 25.9535 % of maximum MRS2179 mean value and 52.677 % of maximum MRS2179 mean value and 40.3542 % of maximum MRS2179 mean value and 35.9046 % of maximum MRS2179 mean value and the “G protein signaling, Ligand-modulated BRET (% of maximum MRS2179 mean value)” value (Human P2Y1-R; [Ligand] 1.00E-06 M) was 9.486 % of maximum MRS2179 mean value and 10.5017 % of maximum MRS2179 mean value and 11.1842 % of maximum MRS2179 mean value and 16.1238 % of maximum MRS2179 mean value and -1.632 % of maximum MRS2179 mean value and 9.136 % of maximum MRS2179 mean value. For the same molecule, the “G protein signaling, Ligand-modulated BRET (% of maximum MRS2179 mean value)” value (Human P2Y1-R; [Ligand] 1.00E-07 M) was -1.306 % of maximum MRS2179 mean value and -6.5129 % of maximum MRS2179 mean value and -11.3924 % of maximum MRS2179 mean value and -9.0003 % of maximum MRS2179 mean value and -8.705 % of maximum MRS2179 mean value and -1.657 % of maximum MRS2179 mean value, the “G protein signaling, Ligand-modulated BRET (% of maximum MRS2179 mean value)” value (Human P2Y1-R; [Ligand] 1.00E-08 M) was 0.5671 % of maximum MRS2179 mean value and -5.257 % of maximum MRS2179 mean value and -11.3188 % of maximum MRS2179 mean value and -7.6778 % of maximum MRS2179 mean value and -4.305 % of maximum MRS2179 mean value and -3.069 % of maximum MRS2179 mean value and the “G protein signaling, Ligand-modulated BRET (% of maximum MRS2179 mean value)” value (Human P2Y1-R; [Ligand] 1.00E-09 M) was -1.107 % of maximum MRS2179 mean value and -5.538 % of maximum MRS2179 mean value and -15.6317 % of maximum MRS2179 mean value and -13.6938 % of maximum MRS2179 mean value and -9.3466 % of maximum MRS2179 mean value and -3.722 % of maximum MRS2179 mean value. For the same molecule, the “G protein signaling, Ligand-modulated BRET (% of maximum MRS2179 mean value)” value (Human P2Y1-R; [Ligand] 1.00E-10 M) was -2.846 % of maximum MRS2179 mean value and -13.4143 % of maximum MRS2179 mean value and -1.422 % of maximum MRS2179 mean value and -10.0078 % of maximum MRS2179 mean value and -9.182 % of maximum MRS2179 mean value and 0.7769 % of maximum MRS2179 mean value, the EC50 (Human P2Y1-R; [2]) was 15.2 µM and the “pEC50 ± s.e.m.” value (Human P2Y1-R; [2]) was 4.817 ± 0.0671. For the same molecule, the “Emax ± s.e.m.” value (Human P2Y1-R; G protein signaling, Fig. 4a, 1 min, normalized to the mean value of maximal MRS2179 response, in %) was 115.7 ± 5.057, the “Behaviour on P2Y1-R-dependent constitutive Gαq protein activation” value (Human P2Y1-R; HEK293T cells, result in words) was “inverse agonist” and the “MRS2179-modulated BRET” value (Human P2Y1-R; [MRS2179] 1.00E-04 M, 1 min) was 0.06995 and 0.1332 and 0.1164 and 0.136 and 0.09077. For the same molecule, the “IP1 concentration (% of basal mean at 30 minutes)” value ([1]; 30 minutes) was 61.0057 % of basal mean at 30 minutes and 99.6481 % of basal mean at 30 minutes and 82.2183 % of basal mean at 30 minutes and 56.7485 % of basal mean at 30 minutes, the “IP1 concentration (% of basal mean at 30 minutes)” value ([1]; 2 hours) was 94.0172 % of basal mean at 30 minutes and 113.32 % of basal mean at 30 minutes and 105.9 % of basal mean at 30 minutes and 70.9752 % of basal mean at 30 minutes and the “IP1 concentration (% matched basal values)” value ([1]; human platelets, MRS2179 10 μM, 2 h, individual donors) was 129.303 % matched basal values and 123.213 % matched basal values and 123.793 % matched basal values and 163.625 % matched basal values and 131.963 % matched basal values and 159.513 % matched basal values and 140.89 % matched basal values and 171.298 % matched basal values and 155.836 % matched basal values and 154.357 % matched basal values and 192.203 % matched basal values and 190.967 % matched basal values and 205.13 % matched basal values and 115.394 % matched basal values and 124.227 % matched basal values and 114.571 % matched basal values. For the same molecule, the “Effect on IP1 levels” value ([1]; washed human platelets, ADP 100 μM, antagonists 10 μM, Gq inhibitor 100 nM, 2 h, apyrase 0.02 U/mL, result in words) was “decreased IP1 levels”.
